Assay results: patent US10953012B2, “Heterocyclic compounds for the inhibition of pask” (BioEnergenix LLC, priority 2011, dated 2021)

Columns and labels:
hPASK (kinase domain) = hPASK (kinase domain) (Homo sapiens (Human), UniProt Q96RG2); test: PAS Kinase Luminescence Assay (Kinase-Glo), kinase domain; type: biochemical
Procedure: (§1) PAS Kinase Luminescence Assay
(§2) One assay for purified hPASK activity utilizes the Kinase-Glo Luminescent Kinase Assay (Promega), which quantifies the amount of ATP remaining in solution following kinase reaction. The assay is carried out in a 96-well plate format and is performed by adding a volume of Kinase-Glo Reagent (Promega, catalog #V3771) equal to the volume of solution in the well of a completed kinase reaction. Kinase-Glo reagent contains Luciferase and its substrate. After addition to a kinase reaction it allows to measure luminescence. The amount of ATP left in solution at the time of Kinase-Glo Plus addition is directly proportional to the luminescence that is measured in each well, and inversely correlated with kinase activity.
(§3) Purified hPASK from insect cells (0.02 μg) is added to a 50 μL reaction mix containing 40 mM HEPES (pH 7.0), 100 mM KCl, 5 mM MgCl2, 1 mM DTT and 1 μg of MBP protein. Inhibitory compounds are then added and the mixture is incubated for 10 min at 25° C. before adding 5 μL of ATP (at desired concentration). The reaction is allowed to proceed at 25° C. for 1 hour before adding 50 μL of Kinase-Glo reagent. The luminescence is measured as soon as 10 minutes after Kinase-Glo reagent is added.
(§4) Results are shown below in Table 1, where NT means not tested.

hPASK (full length) = hPASK (full length) (Homo sapiens (Human), UniProt Q96RG2); test: PAS Kinase Luminescence Assay (Kinase-Glo), full length; type: biochemical
Procedure: as §1, §2, §3, §4

Sequence of hPASK (kinase domain) (Q96RG2 999-1251): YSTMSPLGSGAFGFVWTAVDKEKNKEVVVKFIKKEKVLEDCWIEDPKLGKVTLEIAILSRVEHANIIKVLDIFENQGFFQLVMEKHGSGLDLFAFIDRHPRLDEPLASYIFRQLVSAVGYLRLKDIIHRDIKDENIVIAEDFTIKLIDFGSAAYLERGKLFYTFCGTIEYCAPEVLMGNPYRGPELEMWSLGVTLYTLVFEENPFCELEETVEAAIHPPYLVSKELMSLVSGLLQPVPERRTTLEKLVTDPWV
Sequence of hPASK (full length) (Q96RG2 whole entry): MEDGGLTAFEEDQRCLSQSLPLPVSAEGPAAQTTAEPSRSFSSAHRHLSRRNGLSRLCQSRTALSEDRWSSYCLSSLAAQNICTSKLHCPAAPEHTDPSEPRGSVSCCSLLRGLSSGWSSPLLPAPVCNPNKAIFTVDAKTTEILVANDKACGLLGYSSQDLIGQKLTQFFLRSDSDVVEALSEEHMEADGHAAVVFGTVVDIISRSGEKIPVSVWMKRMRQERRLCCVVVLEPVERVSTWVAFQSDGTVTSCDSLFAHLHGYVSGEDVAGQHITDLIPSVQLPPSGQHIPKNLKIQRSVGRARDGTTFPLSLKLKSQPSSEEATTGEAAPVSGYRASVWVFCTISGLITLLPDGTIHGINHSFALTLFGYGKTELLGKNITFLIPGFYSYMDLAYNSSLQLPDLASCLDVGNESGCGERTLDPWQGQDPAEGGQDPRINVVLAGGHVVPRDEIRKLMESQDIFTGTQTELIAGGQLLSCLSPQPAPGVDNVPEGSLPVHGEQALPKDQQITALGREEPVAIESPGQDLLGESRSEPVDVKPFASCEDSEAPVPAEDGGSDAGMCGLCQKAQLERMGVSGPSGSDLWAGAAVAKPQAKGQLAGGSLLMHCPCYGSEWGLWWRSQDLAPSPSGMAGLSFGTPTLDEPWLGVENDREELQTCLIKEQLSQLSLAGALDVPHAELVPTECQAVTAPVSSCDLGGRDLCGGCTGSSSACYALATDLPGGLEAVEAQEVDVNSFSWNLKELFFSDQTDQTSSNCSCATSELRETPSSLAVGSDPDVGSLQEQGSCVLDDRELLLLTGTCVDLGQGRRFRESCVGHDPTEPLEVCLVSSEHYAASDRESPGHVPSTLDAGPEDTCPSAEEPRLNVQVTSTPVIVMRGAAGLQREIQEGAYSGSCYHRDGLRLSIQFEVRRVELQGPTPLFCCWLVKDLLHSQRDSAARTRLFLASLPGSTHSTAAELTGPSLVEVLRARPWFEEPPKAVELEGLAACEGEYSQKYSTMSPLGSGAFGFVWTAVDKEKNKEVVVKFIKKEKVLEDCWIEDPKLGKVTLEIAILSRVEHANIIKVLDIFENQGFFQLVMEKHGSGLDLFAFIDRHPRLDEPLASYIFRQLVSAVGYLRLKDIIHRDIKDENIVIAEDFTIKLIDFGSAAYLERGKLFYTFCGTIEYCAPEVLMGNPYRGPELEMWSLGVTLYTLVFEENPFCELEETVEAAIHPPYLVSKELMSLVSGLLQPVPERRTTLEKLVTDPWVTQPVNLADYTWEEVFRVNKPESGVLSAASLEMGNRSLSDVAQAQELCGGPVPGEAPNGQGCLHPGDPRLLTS

SMILES | IC50 (hPASK (kinase domain)) [µM] | IC50 (hPASK (full length)) [µM]
COCc1cc(=O)n2nc(Cc3ccccc3)c(-c3ccc(OC)cc3)c2[nH]1 [Example 19, 2-Benzyl-5-methoxymethyl-3-(4-methoxy-phenyl)-4H-pyrazolo[1,5-a]pyrimidin-7-one] | ≥ 10 | ≥ 10
O=c1cc(Cc2ccccc2)[nH]c2c(-c3ccccc3)c(Cc3ccccc3)nn12 [Example 21, 2,5-Dibenzyl-3-phenyl-4H-pyrazolo[1,5-a]pyrimidin-7-one] | ≥ 10 | ≥ 10
CCCc1cc(=O)n2nc(C)c(-c3ccc(Cl)cc3)c2[nH]1 [Example 22, 3-(4-Chloro-phenyl)-2-methyl-5-propyl-4H-pyrazolo[1,5-a]pyrimidin-7-one] | ≥ 10 | ≥ 10
COc1ccc(-c2c(C)nn3c(=O)cc(Cc4ccccc4)[nH]c23)cc1 [Example 23, 5-Benzyl-3-(4-methoxy-phenyl)-2-methyl-4H-pyrazolo[1,5-a]pyrimidin-7-one] | ≥ 10 | ≥ 10
COCc1cc(=O)n2nc(Cc3ccccc3)c(-c3ccc(Cl)cc3)c2[nH]1 [Example 24, 2-Benzyl-3-(4-chloro-phenyl)-5-methoxymethyl-4H-pyrazolo[1,5-a]pyrimidin-7-one] | ≥ 10 | ≥ 10
O=c1c2c([nH]c3c(-c4ccc(Cl)cc4)c(Cc4ccccc4)nn13)CCC2 [Example 26, 2-Benzyl-3-(4-chlorophenyl)-6,7-dihydro-4H-cyclopenta[d]pyrazolo[1,5-a]pyrimidin-8(5H)-one] | ≥ 10 | ≥ 10
Cc1nn2c(=O)c3c([nH]c2c1-c1ccc(Cl)cc1)CCC3 [Example 27, 3-(4-Chlorophenyl)-2-methyl-6,7-dihydro-4H-cyclopenta[d]pyrazolo[1,5-a]pyrimidin-8(5H)-one] | ≥ 10 | ≥ 10
Cc1cc(=O)n2nc(C)c(-c3ccc(Cl)cc3)c2[nH]1 [Example 28, 3-(4-Chloro-phenyl)-2,5-dimethyl-4H-pyrazolo[1,5-a]pyrimidin-7-one] | ≥ 10 | ≥ 10
COCc1cc(=O)n2nc(-c3ccc(Cl)cc3)cc2[nH]1 [Example 29, 2-(4-Chloro-phenyl)-5-methoxymethyl-4H-pyrazolo[1,5-a]pyrimidin-7-one] | ≥ 10 | ≥ 10
COc1ccc(-c2nn3c(=O)cc(C(C)C)[nH]c3c2-c2ccccc2)cc1 [Example 30, 5-Isopropyl-2-(4-methoxy-phenyl)-3-phenyl-4H-pyrazolo[1,5-a]pyrimidin-7-one] | ≥ 10 | ≥ 10
COc1ccc(Cc2nn3c(=O)cc(C)[nH]c3c2-c2ccccc2)cc1 [Example 31, 2-(4-Methoxy-benzyl)-5-methyl-3-phenyl-4H-pyrazolo[1,5-a]pyrimidin-7-one] | ≥ 10 | ≥ 10
CCc1c(C)[nH]c2c(-c3ccccc3)c(Cc3ccc(OC)cc3)nn2c1=O [Example 32, 6-Ethyl-2-(4-methoxy-benzyl)-5-methyl-3-phenyl-4H-pyrazolo[1,5-a]pyrimidin-7-one] | ≥ 10 | ≥ 10
CCc1c(C)[nH]c2c(-c3ccc(Cl)cc3)c(C)nn2c1=O [Example 33, 3-(4-Chloro-phenyl)-6-ethyl-2,5-dimethyl-4H-pyrazolo[1,5-a]pyrimidin-7-one] | ≥ 10 | ≥ 10
O=c1cc(Cc2ccccc2)[nH]c2c(-c3ccccc3)c(-c3ccccc3)nn12 [Example 34, 5-Benzyl-2,3-diphenyl-4H-pyrazolo[1,5-a]pyrimidin-7-one] | ≥ 10 | ≥ 10
O=c1c2c([nH]c3c(-c4ccccc4)c(-c4ccccc4)nn13)CCC2 [Example 35, 2,3-Diphenyl-6,7-dihydro-4H-cyclopenta[d]pyrazolo[1,5-a]pyrimidin-8(5H)-one] | ≤ 10 | ≥ 10
CCOC(=O)Cc1cc(=O)n2nc(-c3ccccc3)c(-c3ccccc3)c2[nH]1 [Example 36, (7-oxo-2,3-diphenyl-4,7-dihydro-pyrazolo[1,5-a]pyrimidin-5-yl)-acetic acid ethyl ester] | ≥ 10 | ≥ 10
Cc1ccc(-c2cc(=O)n3nc(C)c(-c4ccccc4)c3[nH]2)cc1 [Example 37, 2-Methyl-3-phenyl-5-p-tolyl-4H-pyrazolo[1,5-a]pyrimidin-7-one] | ≥ 10 | ≥ 10
COc1ccc(-c2cc(=O)n3nc(C)c(-c4ccc(F)cc4)c3[nH]2)cc1 [Example 38, 3-(4-Fluoro-phenyl)-5-(4-methoxy-phenyl)-2-methyl-4H-pyrazolo[1,5-a]pyrimidin-7-one] | ≤ 10 | ≤ 10
Cc1cc(=O)n2nc(-c3cccc(Br)c3)cc2[nH]1 [Example 39, 2-(3-Bromo-phenyl)-5-methyl-4H-pyrazolo[1,5-a]pyrimidin-7-one] | ≥ 10 | ≤ 10
